Assay results from patent US20090075313A1, “Split protein fragments, split protein systems, methods of making split protein systems, and methods of using split protein systems” (Stanford University, priority 2007, published 2009).
Like-named read-outs stand apart in the source and are kept apart here.

How the values were obtained:
[1] = tested on: human estrogen receptor ligand-binding domain (hER-LBD); test: intramolecular protein folding sensor (split TK fragments flanking ER-LBD), TK enzyme uptake in 293T cells; format: cell-based
Description: FIG. 2b illustrates a schematic diagram of the intramolecular folding sensor construct with the split TK fragments on either side of the estrogen receptor ligand binding domain (ER-LBD), and each construct was made by cloning into a pcDNA3.1 (+) plasmid backbone, under control of a CMV promoter. […] The error bar is the standard error of the mean for three samples.
All experiments were conducted with comparison to a positive control derived from the activity of intact TK, and a mock transfection acting as a negative control.

[2] = tested on: 293T cells stably expressing nTK(V119C)-FRB plus FKBP12-cTK; test: microPET imaging with [18F]-FHBG of subcutaneous 293T xenografts in living mice; format: in vivo
From the text: The signal from each implant was quantified directly from the microPET images to determine the % ID/g for the FHBG probe. […] The animals were repeatedly imaged on day 1 (before rapamycin), day 2 (one dose post rapamycin) and day 5 (3 doses post rapamycin) of this imaging protocol, i.e. after 1 week of initial xenograft growth. […] In another group of 4 mice, xenografts expressing nTK(V119C)-FRB plus FKBP12-cTK were compared with control implants stably expressing nTK plus cTK only (also in a single vector).
All animal handling and care was performed in accordance with Stanford University Animal Research Committee guidelines. […] The cells were allowed to grow as tumors for 7 days (to ˜0.3-0.4 cm in diameter). On day 8 mice were tail vein injected with 200 μCi of [^18F]-FHBG after undergoing anesthesia with 2% isoflurane in oxygen at 2 L/min. Three hours later, mice were microPET imaged in a spread prone position in a FOCUS microPET scanner (Concorde Microsystems, Knoxville, Tenn.). […] Immediately after imaging the animals were intraperitoneally injected with 50 μg of rapamycin; 24 h later all the animals were re-subjected to microPET imaging as mentioned above. The animals were further injected with intraperitoneal 50 μg rapamycin for two more days at 24 h intervals and subjected to repeat microPET imaging. In a separate cohort of 4 control mice, the above temporal imaging studies were performed in an identical fashion except that no rapamycin was administered. […] This % ID/g is a measure of the amount of tracer accumulated in a given tissue site normalized to the injected amount and to the mass of the tissue examined. […] For statistical analysis, the 2-tailed Student t-test was used. Differences were considered significant at P<0.05.

FM (F36M) mutant FKBP12 = FM (F36M) mutant FKBP12 (Homo sapiens, UniProt P62942, F37M)
From the text: (§1) Twenty-four hours later we added FK506 to these cells and, using an in vitro [8-^3H]Penciclovir cell uptake assay, measured either the time- or dose-dependent changes in homodimer dissociation and consequent diminished TK complementation.
as §1

FKBP12 = FKBP12 (Homo sapiens, UniProt P62942); conditions: stable 293T cells, with 40 nM rapamycin, 36 h
cells = conditions: 40 nM of rapamycin per well; cited from earlier work
FKBP12-cTK = FKBP12-cTK (human; herpes simplex virus type 1, UniProt P62942 1-108); test: cell-based or functional assay
HSV1-sr39TK = HSV1-sr39TK (Human herpesvirus 1, UniProt Q9QNF7, A168F/F161L/I160F/L159I/L169M); test: self-complementation of split TK fragments without attached proteins, TK enzyme uptake in 293T cells; format: cell-based, herpes simplex virus type 1
From the text: To confirm or refute this finding we performed a separate PCA study using another pair of known interacting proteins, after replacing FRB and FKBP12 with Id and MyoD respectively (FIG. 2a, and FIG. 12). […] We tested the interaction of Id and MyoD upon transient co-expression of the fusion proteins nTK-Id and MyoD-cTK in 293T cells, followed by an in vitro TK enzyme cellular uptake assay to detect dimerization-assisted complementation of the TK fragments. Again, this same orientation of chimeras using Id and MyoD was used previously in PCAs with split Firefly luciferase and Renilla luciferase. We compared this with complementation obtained using the previous chimeras containing FRB and FKBP12, before and after addition of rapamycin. As negative controls we also assayed for TK activity upon single- and co-expression of nTK and cTK fragments without any attached proteins to check whether any measured TK activity might originate in either the N-terminal or C-terminal fragments of TK alone, or perhaps by their spontaneous self-complementation even without attached proteins. The results, shown in FIG. 12, confirmed the findings described above using the FRB/FKBP12/rapamycin system (FIGS. 9, 10, 12).

[3] = 293T cells, 24 h treatment, P<0.05

FM (F36M) mutant FKBP12, sequence (P62942 whole entry F37M): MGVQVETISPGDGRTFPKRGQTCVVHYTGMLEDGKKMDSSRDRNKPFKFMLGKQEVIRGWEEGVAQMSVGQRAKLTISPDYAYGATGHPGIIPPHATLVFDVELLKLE
FKBP12, sequence (P62942 whole entry, added parts left off): as the sequence (P62942 whole entry F37M) above, with M37F counted along it

## 4-hydroxytamoxifen [4-OHT]
[1]
  level of intramolecular-folding-assisted complementation versus carrier control-treated cells: significantly higher

## Nc1nc2c(ncn2CCC(CO)C[18F])c(=O)[nH]1 (stereo not shown) [FHBG, 9-(4-[^18F]-fluoro-3-hydroxymethylbutyl)-guanine]
[2]; animals imaged in the prone position
  probe % ID/g in shoulder tumors: 1.02 % ID/g
[2]; animals imaged in the supine position
  probe % ID/g in shoulder tumors: 0.89 % ID/g
[2]; control implants stably expressing nTK plus cTK only, fifth day, with rapamycin
  FHBG accumulation in control tumors: minimal
[2]; mock transfected cells
  mean % ID/g for FHBG accumulation, background: 0.28±0.10 % ID/g
[2]; tumor of cells transfected with nTK(V119C)-FRB plus FKBP12-cTK, after 5 days of daily rapamycin
  mean % ID/g for FHBG accumulation: 4.37±1.74 % ID/g

## Cc1c(-c2ccc(O)cc2)nn(-c2ccc(O)cc2)c1-c1ccc(OCCN2CCCCC2)cc1 [MPP, methyl piperidinylethoxy pyrazole]
[1]; [3]
  level of intramolecular-folding-assisted complementation versus carrier control-treated cells: significantly higher

## CCCc1c(-c2ccc(O)cc2)nn(-c2ccc(O)cc2)c1-c1ccc(O)cc1 [PPT, 1,3,5-tris(4-hydroxyphenyl)-4-propyl-1H-pyrazole]
[1]; [3]
  level of intramolecular-folding-assisted complementation versus carrier control-treated cells: significantly higher

## CC[C@@H]1/C=C(\C)C[C@H](C)C[C@H](OC)[C@H]2O[C@@](O)(C(=O)C(=O)N3CCCC[C@H]3C(=O)O[C@H](/C(C)=C/[C@@H]3CC[C@@H](O)[C@H](OC)C3)[C@H](C)[C@@H](O)CC1=O)[C@H](C)C[C@@H]2OC [ascomycin]
FM (F36M) mutant FKBP12; Five μM FK506, within 30 min
  dissociation of complexes (fraction): about two-thirds
FM (F36M) mutant FKBP12; up to 5 μM, after 24 hr of exposure
  change of TK activity with increasing doses: incremental reduction of TK activity
FKBP12
  effect of increasing concentration on TK complementation: reduction in TK complementation
FKBP12; 0 to 16 μM
  smallest concentration required to initiate the competitive inhibition of rapamycin: 0.5 µM

## CO[C@H]1C[C@@H]2CC[C@@H](C)[C@@](O)(O2)C(=O)C(=O)N2CCCC[C@H]2C(=O)O[C@H]([C@H](C)C[C@@H]2CC[C@@H](O)[C@H](OC)C2)CC(=O)[C@H](C)/C=C(\C)[C@@H](O)[C@@H](OC)C(=O)[C@H](C)C[C@H](C)/C=C/C=C/C=C/1C [rapamycin]
cells
  toxicity to cells: non-toxic

B1: nTK-FRB (other)
chain: MASYPCHQHASAFDQAARSRGHSNRRTALRPRRQQEATEVRLEQKMPTLLRVYIDGPHGMGKTTTTQLLVALGSRDDIVYVPEPMTYWRVLGASETIANIYTTQHRLDQGEISAGDAAVVMTSAQITMGMPYAVTDAVLAPHIGGEAGSSHAPPPALTLIFDRHPIAALLCYPAARYLMGSMTPQAVLAFVALIPPTLPGTNIVLGALPEDRHIDRLAKRQRPGERLDLAMLAAIRRVYGLLANTVRYLQCGGSWREDWGQLSGTGGGGSILWHEMWHEGLEEASRLYFGERNVKGMFEVLEPLHAMMERGPQTLKETSFNQAYGRDLMEAQEWCRKYMKSGNVKDLTQAWDLYYHVFRRISK
FKBP12-cTK
  complemented TK activity in the absence of rapamycin, against mock transfection, 293T cells: 2.3 fold above mock transfection levels
  relative gain in complemented TK activity after rapamycin administration, 293T cells: ~3 fold induction
  split TK complementation in SKBr3 human breast cancer cells, with rapamycin: ~3 fold rise
  split TK complementation in SKOV3 human ovarian cancer cells, with rapamycin: ~3 fold rise

B2: nTK: N-terminal TK fragment comprising the amino acids Met-1 to Thr-265 (protein)
chain: MASYPCHQHASAFDQAARSRGHSNRRTALRPRRQQEATEVRLEQKMPTLLRVYIDGPHGMGKTTTTQLLVALGSRDDIVYVPEPMTYWRVLGASETIANIYTTQHRLDQGEISAGDAAVVMTSAQITMGMPYAVTDAVLAPHIGGEAGSSHAPPPALTLIFDRHPIAALLCYPAARYLMGSMTPQAVLAFVALIPPTLPGTNIVLGALPEDRHIDRLAKRQRPGERLDLAMLAAIRRVYGLLANTVRYLQCGGSWREDWGQLSGT
HSV1-sr39TK
  TK activity upon single- or co-expression of fragments without attached proteins: no activity

B3: cTK: C-terminal TK fragment comprising the amino acids Ala-266 to Asn-376 (protein)
chain: AVTPQGAEPQSNAGPRPHIGETLFTLFRAPELLAPNGDLYNVFAWALDVLAKRLRPMHVFILDYDQSPAGCRDALLQLTSGMVQTHVTTPGSIPTICDLARTFAREMGEAH
HSV1-sr39TK
  TK activity upon single- or co-expression of fragments without attached proteins: no activity
